{"source": "patent US10870832B2", "about": "“Use of small molecules to enhance MAFA expression in pancreatic endocrine cells” (Janssen Biotech, Inc., priority 2014, dated 2020)", "key": {"[1]": {"test_system": "MAFA expression", "experiment": "Small molecule screen at Stage 6 or 7, real-time PCR (Example 2)", "assay_type": "cell-based, human", "details": "added at Stage 7, 1 μM, H1-derived cells at air-liquid interface", "procedure": "Cells of the human embryonic stem cell line H1 (WA01) at passage 42 were seeded as single cells at 1×10^5 cells/cm^2 on MATRIGEL™ (1:30 dilution)-coated dishes in a media comprising of DMEM-F12, GlutaMAX™ (1:100 dilution), 0.25 mM ascorbic acid, 100 ng/ml of FGF2 (R & D systems, MN), 1 ng/ml of TGF-β, ITS-X (1:100 dilution), 2% FAF-BSA, and 20 ng/ml of IGF-1, supplemented with 10 μM of Y-27632. Forty-eight hours post-seeding, the cultures were washed in incomplete PBS (phosphate buffered saline without Mg or Ca) followed by incubation with 1× TrypLE™ Express Enzyme (Life Science; Catalog No. 14190) for 3 to 5 minutes at 37° C. The released cells were rinsed with DMEM-F12 and spun at 1000 rpm for 5 minutes. The resulting cell pellet was resuspended in DMEM-F12 supplemented with 10 μM Y-27632, 1× GlutaMAX™, 0.25 mM ascorbic acid, 100 ng/ml FGF2, 1 ng/ml TGF-β, ITS-X at a 1:100 dilution, 2% FAF-BSA and 20 ng/ml of IGF-1 and the single cell suspension was seeded at approximately 1.3 to 1.5×10^5 cells/cm^2. The cultures were fed every day with medium and differentiation, according to the following protocol, was initiated 48 hours following seeding resulting in an about 90% starting confluency. […]\nAt Stages 6 or 7, various small molecules were added and their effect was evaluated by real-time PCR."}, "[2]": {"test_system": "MAFA expression", "experiment": "Stage 7 treatment, real-time PCR of MAFA (Example 6)", "assay_type": "cell-based, human", "details": "Stage 7, day 7, 2 μM in Stage 7 medium, H1-derived cells, mRNA", "procedure": "Cells of the human embryonic stem cell line H1 (WA01) were seeded as single cells at 1×10^5 cells/cm^2 on MATRIGEL™ (1:30 dilution) coated dishes in E8 media. At about 70 to 80% confluency, the cultures were washed in 1× incomplete DPBS followed by incubation with 1× TrypLET™ Express Enzyme for 3 to 5 minutes at 37° C. The released cells were rinsed with E8 and spun at 1000 rpm for 5 minutes. The resulting cell pellet was resuspended in E8 supplemented with 10 μM Y-27632 and the single cell suspension was seeded at approximately 1.3 to 1.5×10^5 cells/cm^2. The cultures were fed every day with E8 medium and differentiation, according to the following protocol, was initiated 48 hrs. following seeding resulting in an about 90% starting confluency.\nStage 6 cells were cultured for seven days in BLAR medium supplemented with a 1:100 dilution of ITS-X; 20 mM glucose (final); 1.5 g/L sodium bicarbonate; 2% FAF-BSA; 10 μg/ml of heparin, 10 μM ZnSO4, 1 μM T3 as 3,3′, 5-triiodo-L-thyronine sodium salt, 10 μM ALK5 inhibitor II, 1 mM N-acetyl cysteine. […]\nAt Stage 7, day 7, mRNA was collected and expression of MAFA, UCN3, PDX1, NKX6.1, insulin and G6PC2 evaluated as compared to undifferentiated human stem cells. […]"}, "[3]": {"biological_target": "PDGFRβ(h) (Homo sapiens, UniProt P09619)", "sequence (P09619 33-1106)": "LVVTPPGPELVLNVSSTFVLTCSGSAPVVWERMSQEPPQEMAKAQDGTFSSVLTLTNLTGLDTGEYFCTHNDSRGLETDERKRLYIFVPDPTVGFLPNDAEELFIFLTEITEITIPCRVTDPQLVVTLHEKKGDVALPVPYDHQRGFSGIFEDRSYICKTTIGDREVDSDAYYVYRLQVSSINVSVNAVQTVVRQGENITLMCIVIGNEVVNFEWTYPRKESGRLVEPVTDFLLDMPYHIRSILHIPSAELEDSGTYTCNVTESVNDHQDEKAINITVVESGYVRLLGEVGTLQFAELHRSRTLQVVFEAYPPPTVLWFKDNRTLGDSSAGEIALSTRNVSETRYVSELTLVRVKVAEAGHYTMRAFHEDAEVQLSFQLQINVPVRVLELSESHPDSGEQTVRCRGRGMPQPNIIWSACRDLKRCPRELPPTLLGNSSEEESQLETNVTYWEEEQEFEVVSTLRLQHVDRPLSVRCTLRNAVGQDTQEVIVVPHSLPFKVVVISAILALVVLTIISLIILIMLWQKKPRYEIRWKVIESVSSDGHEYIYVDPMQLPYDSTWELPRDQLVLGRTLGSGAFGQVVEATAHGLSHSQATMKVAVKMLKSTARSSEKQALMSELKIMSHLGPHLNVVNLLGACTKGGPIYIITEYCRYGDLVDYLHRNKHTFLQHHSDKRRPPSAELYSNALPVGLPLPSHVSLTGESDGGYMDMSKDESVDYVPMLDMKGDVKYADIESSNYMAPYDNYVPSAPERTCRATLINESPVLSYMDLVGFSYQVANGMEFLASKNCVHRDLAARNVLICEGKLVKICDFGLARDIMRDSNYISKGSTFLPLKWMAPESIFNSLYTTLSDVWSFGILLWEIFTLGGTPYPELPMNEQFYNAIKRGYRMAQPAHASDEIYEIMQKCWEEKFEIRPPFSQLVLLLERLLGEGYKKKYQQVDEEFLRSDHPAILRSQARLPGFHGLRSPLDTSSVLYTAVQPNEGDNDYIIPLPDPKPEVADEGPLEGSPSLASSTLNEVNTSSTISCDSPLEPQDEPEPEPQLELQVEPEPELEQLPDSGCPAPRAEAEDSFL", "experiment": "Kinase profiling of R428", "assay_type": "biochemical", "details": "100 μM ATP, lower number = more robust inhibition", "procedure": "(§1) The efficiency of the AXL inhibitor R428 for targeting different kinases was assessed by Kinase Profiling Services using 100 μM ATP concentration (EMD Millipore). R428 was tested at 1 and 10 μM. Table IV lists the kinases profiled along with the efficiency in targeting the kinases with a lower number indicating a more robust inhibition of a particular kinase."}, "[4]": {"biological_target": "Met(h) (Homo sapiens, UniProt P08581)", "sequence (P08581 25-1390)": "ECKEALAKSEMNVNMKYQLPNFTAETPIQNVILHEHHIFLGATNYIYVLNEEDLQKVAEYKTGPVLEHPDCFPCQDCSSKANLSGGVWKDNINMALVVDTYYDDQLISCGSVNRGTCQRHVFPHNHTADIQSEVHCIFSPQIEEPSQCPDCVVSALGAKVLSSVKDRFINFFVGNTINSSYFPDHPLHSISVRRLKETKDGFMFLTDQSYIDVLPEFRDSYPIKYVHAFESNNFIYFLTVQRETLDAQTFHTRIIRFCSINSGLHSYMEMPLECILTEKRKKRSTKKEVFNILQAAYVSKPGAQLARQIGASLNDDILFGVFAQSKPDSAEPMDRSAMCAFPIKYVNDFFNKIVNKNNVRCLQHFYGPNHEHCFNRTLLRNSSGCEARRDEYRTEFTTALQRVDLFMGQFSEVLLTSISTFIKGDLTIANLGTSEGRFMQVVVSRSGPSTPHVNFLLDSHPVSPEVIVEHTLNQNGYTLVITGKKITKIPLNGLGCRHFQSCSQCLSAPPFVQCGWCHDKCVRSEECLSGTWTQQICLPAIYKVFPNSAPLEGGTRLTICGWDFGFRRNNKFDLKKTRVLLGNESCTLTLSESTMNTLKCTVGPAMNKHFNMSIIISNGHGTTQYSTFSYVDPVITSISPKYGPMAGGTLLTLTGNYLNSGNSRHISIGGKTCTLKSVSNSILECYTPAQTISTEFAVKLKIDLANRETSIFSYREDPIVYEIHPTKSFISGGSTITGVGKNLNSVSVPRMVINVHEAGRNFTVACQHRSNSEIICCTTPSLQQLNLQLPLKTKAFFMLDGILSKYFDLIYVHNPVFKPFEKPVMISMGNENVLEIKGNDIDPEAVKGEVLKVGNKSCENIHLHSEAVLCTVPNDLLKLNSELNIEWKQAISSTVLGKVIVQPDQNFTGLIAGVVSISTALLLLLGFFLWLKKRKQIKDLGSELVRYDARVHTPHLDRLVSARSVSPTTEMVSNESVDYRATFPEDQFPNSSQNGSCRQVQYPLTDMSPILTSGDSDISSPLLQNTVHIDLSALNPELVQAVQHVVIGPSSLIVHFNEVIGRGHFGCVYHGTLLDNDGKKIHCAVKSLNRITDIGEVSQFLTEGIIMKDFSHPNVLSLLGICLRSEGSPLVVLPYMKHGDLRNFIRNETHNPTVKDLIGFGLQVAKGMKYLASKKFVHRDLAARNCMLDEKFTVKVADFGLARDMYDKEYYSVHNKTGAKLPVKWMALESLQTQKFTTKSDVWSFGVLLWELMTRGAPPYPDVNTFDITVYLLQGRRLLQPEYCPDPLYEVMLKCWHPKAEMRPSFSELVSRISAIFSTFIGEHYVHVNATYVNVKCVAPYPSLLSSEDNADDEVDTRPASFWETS", "experiment": "Kinase profiling of R428", "assay_type": "biochemical", "details": "100 μM ATP, lower number = more robust inhibition", "procedure": "as §1"}, "[5]": {"biological_target": "Aurora-B(h) (Homo sapiens, UniProt Q96GD4)", "sequence (Q96GD4 whole entry)": "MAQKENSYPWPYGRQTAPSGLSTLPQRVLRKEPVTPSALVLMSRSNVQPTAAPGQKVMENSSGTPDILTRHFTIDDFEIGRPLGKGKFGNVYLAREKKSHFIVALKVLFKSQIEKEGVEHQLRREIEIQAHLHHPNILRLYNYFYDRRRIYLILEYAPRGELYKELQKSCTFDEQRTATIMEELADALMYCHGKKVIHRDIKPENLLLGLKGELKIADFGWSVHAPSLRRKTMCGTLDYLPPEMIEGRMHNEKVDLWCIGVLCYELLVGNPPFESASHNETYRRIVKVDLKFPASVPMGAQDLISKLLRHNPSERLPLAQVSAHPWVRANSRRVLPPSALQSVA", "experiment": "Kinase profiling of R428", "assay_type": "biochemical", "details": "for efficiency in targeting Aurora-B(h): 100 μM ATP, lower number = more robust inhibition", "procedure": "as §1"}, "[6]": {"biological_target": "PKCα(h) (Homo sapiens, UniProt P17252)", "experiment": "Kinase profiling of R428", "assay_type": "biochemical", "details": "100 μM ATP, lower number = more robust inhibition", "procedure": "as §1"}, "[7]": {"biological_target": "PKBα(h) (Homo sapiens, UniProt P31749)", "sequence (P31749 whole entry)": "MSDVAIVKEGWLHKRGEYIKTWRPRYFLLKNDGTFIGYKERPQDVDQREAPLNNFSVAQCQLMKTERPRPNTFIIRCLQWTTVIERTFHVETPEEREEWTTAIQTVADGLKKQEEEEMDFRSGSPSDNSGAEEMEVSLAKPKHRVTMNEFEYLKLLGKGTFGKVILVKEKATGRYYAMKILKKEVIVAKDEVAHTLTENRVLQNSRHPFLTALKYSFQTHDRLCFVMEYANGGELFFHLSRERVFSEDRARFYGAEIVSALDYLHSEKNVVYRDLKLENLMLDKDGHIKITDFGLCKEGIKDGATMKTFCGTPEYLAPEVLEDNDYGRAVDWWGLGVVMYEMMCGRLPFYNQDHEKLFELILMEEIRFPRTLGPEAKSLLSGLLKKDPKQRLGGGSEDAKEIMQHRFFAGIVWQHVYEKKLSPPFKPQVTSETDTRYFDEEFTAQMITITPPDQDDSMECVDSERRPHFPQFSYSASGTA", "experiment": "Kinase profiling of R428", "assay_type": "biochemical", "details": "100 μM ATP, lower number = more robust inhibition, read-out: efficiency in targeting PKBα(h)", "procedure": "as §1"}, "[8]": {"test_system": "CaMKIIIβ(h)", "experiment": "Kinase profiling of R428", "assay_type": "biochemical, human", "details": "100 μM ATP, lower number = more robust inhibition", "procedure": "as §1"}}}
{"smiles": "Nc1nc(Nc2ccc3c(c2)CC[C@@H](N2CCCC2)CC3)nn1-c1cc2c(nn1)-c1ccccc1CCC2", "note": "[R428, 1H-1,2,4-Triazole-3,5-diamine, 1-(6,7-dihydro-5H-benzo[6,7]cyclohepta[1,2-c]pyridazin-3-yl) N3-[(7S)-6,7,8,9-tetrahydro-7-(1-pyrrolidinyl)-5H-benzocyclohepten-2-yl]-]", "values": [{"measurement": "expression of MAFA as compared to untreated cultures", "setting": "[1]", "result": "significantly upregulated"}, {"measurement": "MAFA expression", "setting": "[2]", "result": "increases MAFA expression"}, {"measurement": "efficiency in targeting PDGFRβ(h)", "setting": "[3]; R428 @ 1 μM", "result": 37}, {"measurement": "efficiency in targeting PDGFRβ(h)", "setting": "[3]; R428 @ 10 μM", "result": 21}, {"measurement": "efficiency in targeting Met(h)", "setting": "[4]; R428 @ 1 μM", "result": 49}, {"measurement": "efficiency in targeting Met(h)", "setting": "[4]; R428 @ 10 μM", "result": -1}, {"measurement": "efficiency in targeting Aurora-B(h)", "setting": "[5]; R428 @ 1 μM", "result": 1}, {"measurement": "efficiency in targeting Aurora-B(h)", "setting": "[5]; R428 @ 10 μM", "result": 0}, {"measurement": "inhibition of AuroraB (in words)", "setting": "[5]; at 1 and 10 μM", "result": "potently inhibits"}, {"measurement": "efficiency in targeting PKCα(h)", "setting": "[6]; R428 @ 1 μM", "result": 101}, {"measurement": "efficiency in targeting PKCα(h)", "setting": "[6]; R428 @ 10 μM", "result": 96}, {"measurement": "activity at 1 µM", "setting": "[7]; R428 @ 1 μM", "result": 87, "unit": "%"}, {"measurement": "activity at 10 µM", "setting": "[7]; R428 @ 10 μM", "result": 57, "unit": "%"}, {"measurement": "efficiency in targeting CaMKIIIβ(h)", "setting": "[8]; R428 @ 1 μM", "result": 76}, {"measurement": "efficiency in targeting CaMKIIIβ(h)", "setting": "[8]; R428 @ 10 μM", "result": 5}]}
